# Where “and” joins values, the source holds several entries; their conditions need not be identical. Identical values can stand only once.
# Legend:
# Format in all cases: in vivo
# [1] = tested on: bunch rot (Botrytis cinerea); experiment: Vineyard trial, MDJ on cabernet sauvignon grapes, laccase analysed as measure of Botrytis prevalence; conditions: MDJ approx. 5 mM, 50 gallons per acre, four applications, control = grower standard
# Protocol: Methyl dihydrojasmonate (MDJ) was applied to fields of grape to investigate the efficacy of MDJ in preventing bunch rot on (Botrytis cinerea) and powdery mildew (Erysiphe necator) on grapes. A composition comprising 22.6% w/v MDJ, 49.8% v/v TWEEN-20, and water was diluted at a rate of 32 oz. (1 liter) per 50 gallons of water (approximately a 5 mM solution of MDJ). The composition was then applied (at a rate of 50 gallons per acre) to three acres (1245 vines/acre) of a cabernet sauvignon variety grown in Napa Valley, CA. There was a total of four applications between June and September using a ground spray rig. To investigate the prevalence of Botrytis, the enzyme laccase was analyzed. Laccase can negatively impact wine by causing premature browning of bottled white wine and color degradation in red wine. The MDJ treated group had 2 units/ml, whereas the control (grower standard) had 5 units/ml. This level in the control means that Botrytis problems can be expected during the wine making process, whereas in the MDJ treated group, the value of 2 units/ml means there will be no issues with Botrytis during the wine making process.
# Botrytis = experiment: Field trial, MDJ foliar spray on 'Maverick' strawberries, Botrytis incidence on berries; conditions: MDJ approx. 5 mM, 50 gallons per acre, two foliar sprays
# Protocol: Methyl dihydrojasmonate (MDJ) was applied to fields of strawberry to investigate the efficacy of MDJ in preventing Botriytis disease. A composition comprising 22.6% w/v MDJ, 49.8% v/v TWEEN-20, and water was diluted at a rate of 32 oz. (1 liter) per 50 gallons of water (approximately a 5 mM solution of MDJ). The composition was then applied (at a rate of 50 gallons per acre) to an acre of ‘Maverick’ strawberries grown in Watsonville, CA on Aug. 18, 2021 and again on Sep. 2, 2021 using an electrostatic backpack sprayer (foliar spray). Plants were harvested in October 2021. MDJ plants were compared to strawberries treated with the grower standard; a rotation of Pristine® (pyraclostrobin and boscalid), Merivon® (pyraclostrobin), Luna® (fluopyram and trifloxystrobin), and Elevate® (fenhexamid). […] Out of four replicates of 10 plants each, the average incidence of Botrytis on berries in the MDJ treated acre was 11%, compared to 18.75% in the grower standard population.
# [2] = tested on: powdery mildew (Erysiphe necator); experiment: Vineyard trial, MDJ on cabernet sauvignon grapes, powdery mildew on leaf and fruit samples under the microscope; conditions: MDJ approx. 5 mM, 50 gallons per acre, four applications; grape leaf and fruit samples
# Protocol: Methyl dihydrojasmonate (MDJ) was applied to fields of grape to investigate the efficacy of MDJ in preventing bunch rot on (Botrytis cinerea) and powdery mildew (Erysiphe necator) on grapes. A composition comprising 22.6% w/v MDJ, 49.8% v/v TWEEN-20, and water was diluted at a rate of 32 oz. (1 liter) per 50 gallons of water (approximately a 5 mM solution of MDJ). The composition was then applied (at a rate of 50 gallons per acre) to three acres (1245 vines/acre) of a cabernet sauvignon variety grown in Napa Valley, CA. There was a total of four applications between June and September using a ground spray rig. Several leaf and fruit samples were collected to access the presence of powdery mildew under the microscope and compared to leaf and fruit of plants treated with the grower standard.
# Botrytis cinerea = experiment: Hemp inoculated with Botrytis cinerea, visual disease score 0-5 at harvest; conditions: 8 replicates
# Protocol: Culturing Botrytis cinerea: A Botrytis cinerea isolate was cultured onto potato-dextrose agar (PDA). It was resisolated by taking a mycelial plug from the edge of actively growing cultures every 2-3 weeks to maintain active growing culture. It was maintained at 20° C. under continuous light (˜58 pEin m^−2 s^−1).
# Inoculating hemp: The inoculum was prepared by flooding a full grown B. cinerea PDA plate with DI water and 0.1% Tween-20 to create a suspension of fungal spores. Spore count was quantified.
# In the first inoculation, a suspension of 1.2×10^4 spores of B. cinerea/mL was created, and 1.5 mL was applied to the top cola/inflorescence of each plant. Hemp was inoculated in the first week of flowering, with application to the underdeveloped inflorescences.
# In the second inoculation, a suspension of 1.5×10^5 spores of B. cinerea/mL was created, and sucrose was added to 1% concentration, and the plants were sprayed until drip using a backpack sprayer.
# Inoculated plants were placed in a growth chamber or controlled growth environment with a constant temperature of 20-25° C. and 50-70% relative humidity.
# Treatment Conditions: Treatments comprising 1 mM or 5 mM jasmonate (MDJ) were applied alone or alongside a biological (Continuum™). These treatment conditions were compared to control (no MDJ, no biological). Each treatment group had 8 replicates. […]
smiles,measurement,setting,value
"CCCCCC1C(=O)CCC1CC(=O)OC (stereo not drawn) [MDJ, methyl dihydrojasmonate]",Laccase,[1],2 units/ml
same,Average % incidence of Botrytis on berries,Botrytis; average of four replicates of 10 plants each,11%
same,% incidence of Botrytis,"Botrytis; single replicates 1-4, 10 plants each, strawberry berries",10% and 16% and 7% and 11%
same,Control of powdery mildew compared to grower standard,[2],"the same, or better, control of powdery mildew as the grower standard"
same,Average Disease Score,Botrytis cinerea; condition B: 1 mM MDJ foliar spray,2.625
same,Average Disease Score,Botrytis cinerea; condition C: 5 mM MDJ foliar spray,2.250

# — patent US20250031697A1, “METHODS AND COMPOSITIONS TO PREVENT PLANT PESTS AND PATHOGENS” (Impello Biosciences, Inc., priority 2021, published 2025)
